Source: US12653799B2, “Compositions and methods for treating Alzheimer's disease” (ELEANORE BENNETT CHARITABLE TRUST #2, priority 2021, dated 2026)

What was measured:
[1] = system: Akt phosphorylation in Aβ42-expressing SH-SY5Y cells; test: Akt activation in Aβ42-expressing cells (adenovirus/doxycycline, insulin-stimulated); assay type: cell-based
Experimental: Adv TetOn and TRE-Aβ42 viruses were described previously (Magrane et al., 2005). […] Insulin (10 or 40 nM) was added in the last 20-30 min before harvest. […] Cell extracts were prepared in lysis buffer [20 mM Tris-HCl (pH 7.5), 150 mM NaCl, 1 mM EDTA, 1 mM Na3VO4, 1% NP-40, 10% Glycerol, 1 mM Na4P2O7, 1 μg/ml Leupeptin, 1 μg/ml Pepstatin A, 1 μg/ml Aprotinin, 0.1 mM phenylmethylsulfonyl fluoride, and protease inhibitor cocktail (Roche)] and were stored at −80° C. until use.
Whole-cell extracts were used directly for western blot analysis (20˜30 μg). Extracts from cultured cells prepared in lysis buffer, were diluted into Laemmli sample buffer, heated (95° C., 10 min), cleared by centrifugation, separated on SDS-PAGE and transferred to PVDF membrane (Immobilon-P; Millipore). Membranes were blocked in TBS containing 0.3% Tween-20 and 5% (wt/vol) non-fat dry milk. After incubation with primary antibodies (18 hr at 4° C. in buffer containing 5% bovine serum albumin (BSA) and 0.05% NaN3), blots were washed and incubated in horseradish peroxidase (HRP)-conjugated secondary antibodies (1:2000 dilution; Cell Signaling). Signals were detected using ECL reagents and quantified using a Kodak Image Station 4000R.
[…]. […] […]. […] […].

[2] = system: Akt Ser473 phosphorylation in rat primary cortical neurons; test: Non-amyloid insulin resistance model (palmitate/ceramide) in primary cortical neurons; assay type: cell-based; details: palmitate 300 μM; PS48 100 nM, 24 hrs; insulin 20 nM
Experimental: FIG. 1B. Non-amyloid-based insulin resistance model. Partial restoration of insulin-induced Akt activation in rat primary cortical neurons exposed to the fatty acid neurotoxin palmitate (300 μM). […] . The same result was obtained in ceramide-treated (50 μM) primary neurons (not shown); *p<0.05). Representative western blot above, n=3 experiments.
SH-SY5Y were left undifferentiated.

mTOR = test: Downstream mTOR phosphorylation; assay type: cell-based; details: PS48 1 or 10 μM, 2-4 hrs before doxycycline
Akt-1 = biological target: T1, Akt-1 (Homo sapiens, UniProt P31749); test: Fluorescence polarization, FAM-Aβ42 binding to Akt-1 in solution; details: PS48 10, 20, and 100 μM; results not shown
T1 construct: purchased Amsbio
T1 sequence (P31749 whole entry): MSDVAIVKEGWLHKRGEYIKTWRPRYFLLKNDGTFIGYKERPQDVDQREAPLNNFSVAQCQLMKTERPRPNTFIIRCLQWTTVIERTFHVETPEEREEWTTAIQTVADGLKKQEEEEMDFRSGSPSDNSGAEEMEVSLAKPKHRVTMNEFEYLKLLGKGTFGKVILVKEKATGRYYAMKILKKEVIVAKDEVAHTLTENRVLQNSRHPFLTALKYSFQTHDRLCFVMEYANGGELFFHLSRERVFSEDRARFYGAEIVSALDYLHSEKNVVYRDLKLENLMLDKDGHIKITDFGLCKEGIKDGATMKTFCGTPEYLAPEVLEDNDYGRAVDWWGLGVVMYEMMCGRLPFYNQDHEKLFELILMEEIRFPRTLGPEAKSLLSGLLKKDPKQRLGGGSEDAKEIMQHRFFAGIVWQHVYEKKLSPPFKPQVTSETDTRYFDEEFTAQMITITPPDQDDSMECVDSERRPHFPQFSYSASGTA

APP/PS-1 transgenic mice = test: Morris water maze in APP/PS-1 transgenic mice, PS48 via diet; assay type: in vivo, mouse; details: for time spent over the platform area, acquisition probe: TG
Experimental: Next, a series of experiments was performed using a Morris water maze. WT mice fed standard diet (SD) reached the hidden platform in a shorter time compared to TG-SD mice. […] The PS48 effect was more pronounced within the standard diet condition. *p<0.05, **p<0.01, ANOVA; ^p<0.05, t-test. WT mice fed standard diet (SD) reached the hidden platform zone in a shorter distance compared to TG-SD mice. […] The PS48 effect was more pronounced within the standard diet condition. Memory acquisition for the location of the escape platform location was tested in 12-month-old APP/PS1 transgenic and littermate mice. The removed escape platform was located in the northeast quadrant of the tank. […] The 10 cm platform is indicated in the figure by the shaded circle in the upper right quadrant. The following metrics were quantified: (1) time spent swimming over the target area, (2) latency to attain the target area, (3) path length to platform, and (4) number of crossings over the area. […] Transgenic animals fed high fat diet (HFD) performed less well than those on standard diet. […] Lower latency values indicate better recall for the target location. […] Animals were retrained with the platform in the SE quadrant and probe phase conducted as before. FIGS. 13E-13H show path length taken, in cm, to first reach hidden platform. […] Similar probe results were obtained in the subsequent reversal trial. […] (±1 SEM, n=16 data points per group, *p<0.05, **p<0.01, ++p<0.001). […] The data has similar import to time spent over platform area above.

C57BL/6 mice = test: Safety of PS48 by oral gavage for 14 days; assay type: in vivo, mouse; details: oral gavage 1 or 50 mg/kg per day
Experimental: Finally, a series of in vivo experiments was performed to assess safety of treatment with PS48. […] Similarly, when PS48 was given by oral gavage over 2 weeks, there were no signs of toxicity by gross observation, organ specific necropsy, or weight.
Adult C57BL/6 mice (n=6 per group) were administered PS48 for 14 days. A low dose group received 1 mg/kg per day, while a high dose group received 50 mg/kg per day. A negative control group received corn oil. […] Body and organ specific weights were unaffected at necropsy. Fasting serum glucose at trial end was unchanged (˜150 mg/dl).

cells = details: WST-1
Experimental: SH-SY5Y cells were washed twice in warm Dulbecco's phosphate-buffered saline (DPBS) and incubated in 1 ml DMEM containing 0.5 mg (3-[4,5-dimethylthiazol-2-yl]-2,5-diphenyltetrazolium bromide) (MTT or WST; Molecular Probes, Eugene, OR) for 2-3 h at 37° C. and 5% CO2. The medium was aspirated and the cells were washed twice with pre-warmed DPBS. The formazan salts were dissolved in 1 ml pure ethanol before use. Cells were homogenized by repetitive pipetting and centrifuged for 5 min at 4500 rpm, and the supernatant collected. Absorbance was read against an ethanol blank at 590 nm.

[3] = system: Akt Ser 473 phosphorylation in N2a cells; test: Insulin sensitization at subthreshold insulin in N2a cells; details: insulin 3 nM, 15 min; PS48 0.1 to 100 μM, 2 hrs

In the case of `O=C(O)/C=C(/CCc1ccc(Cl)cc1)c1ccccc1` [PS48, (Z)-5-(4-chlorophenyl)-3-phenylpent-2-enoic acid], the “concentration at which the dose-dependent reversal became apparent” value ([1]; SH-SY5Y and C2C12 myotube cell lines, p<0.01) was 100 nM, the “reversal of Aβ42 inhibition of insulin-stimulated Akt phosphorylation” value ([1]; SH-SY5Y and C2C12 myotube data combined, PS48 100 nM and 1 μM (and 10 μM)) was “significantly reversed the Aβ42 effect” and the “Akt activation (pT308) in β-amyloid-expressing cells” value ([1]; SH-SY5Y, PS48 1 μM or insulin 100 nM added 2 hrs before doxycycline, insulin 40 nM 20 min prior to harvest) was “restored basal Akt activation levels”. For the same compound, the “basal Akt, compound alone” value ([1]; SH-SY5Y, PS48 1 μM, no Aβ42 induction) was “did not over-stimulate”, the “Akt activity: phosphorylation of GSK3α/β consensus peptide by immunoprecipitated Akt (in vivo-in vitro coupled assay)” value ([1]; SH-SY5Y, PS48 pre-treatment 50 nM, 2 hrs before doxycycline) was “prevented the inhibition of peptide phosphorylation by Aβ42” and the “inhibition of Akt Ser473 phosphorylation by palmitate” value [2] was “partly reversed inhibition of Akt Ser473 phosphorylation by palmitate”. For the same compound, the “downstream mTOR substrate phosphorylation” value (mTOR) was “unchanged”, the “effect of PS48 additions on polarization signal” value (Akt-1) was “did not affect either polarization signal” and the “latency to reach the hidden platform, place learning and reversal tasks” value (APP/PS-1 transgenic mice; PS48 orally through diet, SD and HFD, more pronounced on standard diet) was “tended to reduce latency”. The “time spent over the platform area, acquisition probe” value (APP/PS-1 transgenic mice; HFD supplemented with PS48, p<0.01 vs Tg HFD w/V) was “most significant improvement”, the “time spent over the platform area, acquisition probe” value (APP/PS-1 transgenic mice; standard diet with PS48, p<0.10 vs vehicle fed) was “improved in this measure” and the “path length, acquisition and reversal data combined” value (APP/PS-1 transgenic mice; Tg HFD group) was “significantly benefited”. The “latency to platform, acquisition probe” value (APP/PS-1 transgenic mice; Tg mice on standard or high fat diet vs vehicle controls) was “Results favored”, the “path length to first reach hidden platform, probe” value (APP/PS-1 transgenic mice; Tg on standard or HFD diet) was “trended improvements in the direction of WT” and the “crossing numbers over removed platform location” value (APP/PS-1 transgenic mice; both probe trials combined, p<0.05 vs vehicle) was “performed significantly better than vehicle”. For the same compound, the “distance to zone to reach the hidden platform” value (APP/PS-1 transgenic mice; dietary PS48, SD and HFD, more pronounced on standard diet) was “tended to reduce distance to zone”, the behavioral changes (C57BL/6 mice) was “No overt behavioral changes” and the “body and organ specific weights at necropsy” value (C57BL/6 mice) was “unaffected”. For the same compound, the tolerability (C57BL/6 mice) was “well tolerated”, the “fasting serum glucose at trial end” value (C57BL/6 mice; unchanged) was roughly 150 mg/dL and the LD50 (cells) was 250 µM. For the same compound, the “phosphorylation of Ser 473 at subthreshold insulin” value [3] was “boosting the phosphorylation of Ser 473 to a 20 nM insulin-equivalence response”.
